In PMC9790248, “Effects of CYP3A Inhibition, CYP3A Induction, and Gastric Acid Reduction on the Pharmacokinetics of Ripretinib, a Switch Control KIT Tyrosine Kinase Inhibitor” (Clinical Pharmacology in Drug Development, 2022):

Columns and labels:
Assay in all cases: Incubation with recombinant human CYPs, substrate disappearance
Assay type in all cases: in vitro ADME
CYP2C8 = target: T1, CYP2C8 (Homo sapiens, UniProt P10632); conditions: data on file
T1 sequence (P10632 1-490): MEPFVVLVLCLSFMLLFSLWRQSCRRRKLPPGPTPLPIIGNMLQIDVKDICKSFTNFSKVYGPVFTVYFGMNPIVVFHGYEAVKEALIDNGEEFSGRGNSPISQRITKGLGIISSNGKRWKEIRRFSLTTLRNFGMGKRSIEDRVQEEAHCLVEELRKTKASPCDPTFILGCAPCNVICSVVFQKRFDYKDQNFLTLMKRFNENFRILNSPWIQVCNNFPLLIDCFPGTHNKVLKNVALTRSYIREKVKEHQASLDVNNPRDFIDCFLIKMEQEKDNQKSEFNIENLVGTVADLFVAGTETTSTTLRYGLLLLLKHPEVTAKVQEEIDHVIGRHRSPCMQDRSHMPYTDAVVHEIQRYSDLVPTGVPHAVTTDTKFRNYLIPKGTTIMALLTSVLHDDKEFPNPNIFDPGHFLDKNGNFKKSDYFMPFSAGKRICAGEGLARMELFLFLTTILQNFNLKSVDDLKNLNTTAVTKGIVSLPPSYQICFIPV
Description: (§1) In vitro studies with recombinant human cytochrome P450 isoforms (CYPs) and human liver microsomes (with chemical inhibitors) indicate that CYP3A4/5 plays a major role in the metabolism of ripretinib (data on file). When incubated with a panel of recombinant human CYPs, ripretinib (0.1 or 1 μM) disappeared in the presence of CYP3A4 (87.8%–100%), CYP2D6 (97.7%–100%), CYP2C8 (71.2% and 18.9%, respectively), and CYP2C19 (15.7% and 6.7%, respectively).

CYP2C9 = CYP2C9 (Homo sapiens, UniProt P11712); conditions: ripretinib 0.1 or 1 μM, data on file
Chain of CYP2C9 (P11712 whole entry): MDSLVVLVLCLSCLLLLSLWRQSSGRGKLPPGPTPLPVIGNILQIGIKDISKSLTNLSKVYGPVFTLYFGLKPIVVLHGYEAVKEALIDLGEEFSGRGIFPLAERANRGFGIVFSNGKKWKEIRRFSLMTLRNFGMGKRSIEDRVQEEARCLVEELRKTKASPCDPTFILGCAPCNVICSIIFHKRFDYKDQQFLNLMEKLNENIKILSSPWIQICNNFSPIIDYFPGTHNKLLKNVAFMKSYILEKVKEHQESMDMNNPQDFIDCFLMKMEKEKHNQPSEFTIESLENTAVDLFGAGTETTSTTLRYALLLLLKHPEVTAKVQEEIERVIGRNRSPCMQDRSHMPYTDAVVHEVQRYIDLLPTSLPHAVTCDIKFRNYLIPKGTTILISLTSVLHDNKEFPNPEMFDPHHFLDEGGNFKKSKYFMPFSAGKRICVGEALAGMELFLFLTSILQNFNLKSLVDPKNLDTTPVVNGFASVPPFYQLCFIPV
Description: as §1

CYP2C19 = CYP2C19 (Homo sapiens, UniProt P33261); conditions: data on file
Chain of CYP2C19 (P33261 whole entry): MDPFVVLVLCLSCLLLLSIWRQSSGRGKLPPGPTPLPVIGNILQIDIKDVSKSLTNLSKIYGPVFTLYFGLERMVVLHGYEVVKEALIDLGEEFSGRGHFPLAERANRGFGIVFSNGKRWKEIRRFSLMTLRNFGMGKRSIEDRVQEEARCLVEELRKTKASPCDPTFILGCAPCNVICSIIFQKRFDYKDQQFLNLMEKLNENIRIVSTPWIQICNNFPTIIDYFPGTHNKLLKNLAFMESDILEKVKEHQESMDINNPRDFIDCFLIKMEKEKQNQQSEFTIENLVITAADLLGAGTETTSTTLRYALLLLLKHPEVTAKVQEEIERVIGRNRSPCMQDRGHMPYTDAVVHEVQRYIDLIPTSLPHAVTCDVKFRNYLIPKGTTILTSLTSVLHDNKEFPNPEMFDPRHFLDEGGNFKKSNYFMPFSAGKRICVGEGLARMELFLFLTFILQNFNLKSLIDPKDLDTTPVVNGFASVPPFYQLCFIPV
Description: as §1

CYP3A4 = CYP3A4 (Homo sapiens, UniProt P08684); conditions: ripretinib 0.1 or 1 μM, data on file
Chain of CYP3A4 (P08684 whole entry): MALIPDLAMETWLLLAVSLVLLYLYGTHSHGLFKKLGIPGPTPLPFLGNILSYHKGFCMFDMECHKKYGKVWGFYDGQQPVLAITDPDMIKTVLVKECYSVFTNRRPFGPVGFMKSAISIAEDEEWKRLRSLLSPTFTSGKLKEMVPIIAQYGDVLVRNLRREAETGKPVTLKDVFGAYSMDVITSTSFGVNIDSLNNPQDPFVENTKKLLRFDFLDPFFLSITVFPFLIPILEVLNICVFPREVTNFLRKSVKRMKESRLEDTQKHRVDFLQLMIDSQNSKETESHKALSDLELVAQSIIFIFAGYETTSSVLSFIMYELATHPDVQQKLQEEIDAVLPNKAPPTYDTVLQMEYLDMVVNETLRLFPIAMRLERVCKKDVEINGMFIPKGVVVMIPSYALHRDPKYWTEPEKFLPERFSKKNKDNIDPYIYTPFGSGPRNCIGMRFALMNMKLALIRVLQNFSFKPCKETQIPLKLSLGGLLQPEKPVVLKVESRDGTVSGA
Description: as §1

CYP2D6 = target: T2, CYP2D6 (Homo sapiens, UniProt P10635); conditions: ripretinib 0.1 or 1 μM, data on file
T2 construct: with human liver microsomes (0.5 mg protein/mL) for 30 minutes; from tissue; host or cells: human liver microsomes
T2 sequence (P10635 whole entry): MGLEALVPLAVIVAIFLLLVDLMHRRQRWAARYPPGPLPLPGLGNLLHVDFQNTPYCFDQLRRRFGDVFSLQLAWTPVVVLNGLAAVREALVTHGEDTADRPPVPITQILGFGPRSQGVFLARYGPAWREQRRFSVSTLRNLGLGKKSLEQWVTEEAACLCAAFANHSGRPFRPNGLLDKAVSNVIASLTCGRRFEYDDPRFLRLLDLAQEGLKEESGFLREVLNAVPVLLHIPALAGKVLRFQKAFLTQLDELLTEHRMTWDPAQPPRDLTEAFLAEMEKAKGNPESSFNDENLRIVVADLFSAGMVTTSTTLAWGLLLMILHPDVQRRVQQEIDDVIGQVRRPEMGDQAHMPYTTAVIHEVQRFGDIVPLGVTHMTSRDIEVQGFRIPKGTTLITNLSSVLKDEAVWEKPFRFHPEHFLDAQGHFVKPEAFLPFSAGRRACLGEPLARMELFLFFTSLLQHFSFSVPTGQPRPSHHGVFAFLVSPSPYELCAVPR
Description: as §1

CYP2B6 = target: T3, CYP2B6 (Homo sapiens, UniProt P20813); conditions: ripretinib 0.1 or 1 μM, data on file
T3 sequence (P20813 1-491): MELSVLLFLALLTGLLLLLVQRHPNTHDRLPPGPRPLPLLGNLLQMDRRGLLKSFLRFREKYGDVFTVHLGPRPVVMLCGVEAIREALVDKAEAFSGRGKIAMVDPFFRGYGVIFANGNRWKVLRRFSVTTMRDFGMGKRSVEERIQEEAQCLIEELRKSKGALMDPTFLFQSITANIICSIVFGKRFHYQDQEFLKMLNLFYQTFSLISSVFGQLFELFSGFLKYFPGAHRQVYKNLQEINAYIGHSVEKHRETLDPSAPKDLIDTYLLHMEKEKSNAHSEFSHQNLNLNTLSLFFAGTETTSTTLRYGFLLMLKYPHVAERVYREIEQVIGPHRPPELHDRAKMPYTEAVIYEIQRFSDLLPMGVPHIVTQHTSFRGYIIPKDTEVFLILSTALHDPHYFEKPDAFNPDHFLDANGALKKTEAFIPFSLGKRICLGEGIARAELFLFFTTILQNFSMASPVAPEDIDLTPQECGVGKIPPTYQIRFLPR
Description: as §1

CYP1A2 = target: T4, CYP1A2 (Homo sapiens, UniProt P05177); conditions: ripretinib 0.1 or 1 μM, data on file
T4 sequence (P05177 1-516): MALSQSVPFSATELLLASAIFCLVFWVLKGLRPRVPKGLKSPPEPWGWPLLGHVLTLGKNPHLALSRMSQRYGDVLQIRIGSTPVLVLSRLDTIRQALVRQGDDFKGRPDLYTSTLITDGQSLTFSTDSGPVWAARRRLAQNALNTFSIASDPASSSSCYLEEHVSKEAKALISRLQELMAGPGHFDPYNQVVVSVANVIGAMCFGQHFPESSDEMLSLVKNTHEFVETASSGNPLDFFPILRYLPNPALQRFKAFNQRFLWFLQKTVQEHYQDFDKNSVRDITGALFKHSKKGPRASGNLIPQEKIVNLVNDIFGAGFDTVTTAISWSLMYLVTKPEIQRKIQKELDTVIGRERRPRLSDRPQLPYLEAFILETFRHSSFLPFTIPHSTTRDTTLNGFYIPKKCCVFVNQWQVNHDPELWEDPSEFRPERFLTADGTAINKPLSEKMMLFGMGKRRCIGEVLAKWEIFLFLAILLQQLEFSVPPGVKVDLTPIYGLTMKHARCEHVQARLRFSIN
Description: as §1

CCn1c(=O)c(-c2cc(NC(=O)Nc3ccccc3)c(F)cc2Br)cc2cnc(NC)cc21 [Ripretinib]
Substrate disappearance (CYP2C8; ripretinib 0.1 μM): 71.2%
Substrate disappearance (CYP2C8; ripretinib 1 μM): 18.9%
Substrate disappearance (CYP2C9): less than 7%
Substrate disappearance (CYP2C19; ripretinib 0.1 μM): 15.7%
Substrate disappearance (CYP2C19; ripretinib 1 μM): 6.7%
Substrate disappearance (CYP3A4): 87.8%–100%
Substrate disappearance (CYP2D6): 97.7%–100%
Substrate disappearance (CYP2B6): less than 7%
Substrate disappearance (CYP1A2): less than 7%
